In US20080125460A1, “Imidazopyridine-Derivatives As Inducible No-Synthase Inhibitors” (Altana Pharma AG, priority 2003, published 2008):

What was measured:
[1] = molecular target: human inducible NO-synthase (Homo sapiens, UniProt P35228); assay: Measurement of inducible NO-synthase activity ([3H]arginine conversion); format: biochemical; conditions: crude cytosolic fraction containing human inducible NO-synthase; 0.1 μM arginine; 45 to 60 min at 37° C.; read-out: Inhibition of iNOS activity [measured as -logIC50 (mol/l)] (converted)
Description: The assay is performed in 96well microtiter F-plates (Greiner, Frickenhausen, FRG) in a total volume of 100 μl in the presence of 100 nM calmodulin, 226 μM CaCl2, 477 μM MgCl2, 5 μM flavin-adenine-dinucleotide (FAD), 5 μM flavin mononucleotide (FMN), 0.1 mM NADPH, 7 mM glutathione, 10 μM BH4 and 100 mM HEPES pH 7.2. Arginine concentrations are 0.1 μM for enzyme inhibition experiments. 150000 dpm of [^3H]arginine are added to the assay mixture. Enzyme reaction is started by the addition of 4 μg of a crude cytosolic fraction containing human inducible NO-synthase and the reaction mixture is incubated for 45 to 60 min at 37° C. Enzyme reaction is stopped by adding 10 μl of 2M MES-buffer pH 5.0. 50 μl of the incubation mixture are transferred into a MADP N65 filtration microtiter plate (Millipore, Eschborn, FRG) containing already 50 μl of AG-50W-X8 cation exchange resin (Biorad, München, FRG). The resin in the Na loaded form is pre-equilibrated in water and 70 μl (corresponding to 50 μl dry beads) are pipetted under heavy stirring with a 8 channel pipette into the filtration plate. After pipetting 50 μl of the enzyme reaction mixture onto the filtration plates, the plates are placed on a filtration manifold (Porvair, Shepperton, UK) and the flow through is collected in Pico scintillation plates (Packard, Meriden, CT). The resin in the filtration plates is washed with 75 μl of water (1×50 μl and 1×25 μl) which is also collected in the same plate as the sample. The total flow through of 125 μl is mixed with 175 μl of Microscint-40 scintillation cocktail (Packard) and the scintillation plate is sealed with TopSeal P-foil (Packard). Scintillation plates are counted in a scintillation counter.
For the measurement of inducible NO-synthase-inhibiting potencies of compounds increasing concentrations of inhibitors were included into the incubation mixture. IC50-values were calculated from the percent inhibition at given concentrations by nonlinear least square fitting.

Compound	IC50 [1] [nM]	melting point [°C]
COc1ccnc(CCc2nc3cc(-c4ccc(-c5ccccc5)s4)cnc3[nH]2)c1 [Example 13, 2-[2-(4-Methoxy-pyridin-2-yl)-ethyl]-6-(5-phenyl-thiophen-2-yl)-3H-imidazo[4,5-b]pyridine]	30.9 to 245	–
COc1ccnc(CCc2nc3cc(-c4ccncc4)cnc3[nH]2)c1 [Example 3, 2-[2-(4-Methoxypyridin-2-yl)ethyl]-6-(pyridin-4-yl)-3H-imidazo-[4,5-b]pyridine]	55	237 to 238
COc1ccnc(CCc2nc3cc(-c4ccsc4)cnc3[nH]2)c1 [Example 5, 2-[2-(4-Methoxypyridin-2-yl)ethyl]-6-(thiophen-3-yl)-3H-imidazo-[4,5-b]pyridine]	34.7	154 to 155
COc1ccnc(CCc2nc3cc(-c4cc5ccccc5o4)cnc3[nH]2)c1 [Example 10, 6-Benzofuran-2-yl-2-[2-(4-methoxy-pyridin-2-yl)-ethyl]-3H-imidazo[4,5-b]pyridine]	30.9 to 245	–
COc1ccnc(CCc2nc3cc(-c4nc5cc(C)ccc5[nH]4)cnc3[nH]2)c1 [Example 8, 2-[2-(4-Methoxy-pyridin-2-yl)-ethyl]-6-(5-methyl-1H-benzoimidazol-2-yl)-3H-imidazo[4,5-b]pyridine]	30.9 to 245	–
COc1ccnc(CCc2nc3cc(-c4cccs4)cnc3[nH]2)c1 [Example 4, 2-[2-(4-Methoxypyridin-2-yl)ethyl]-6-(thiophen-2-yl)-3H-imidazo-[4,5-b]pyridine]	24.5	132 to 133
COc1ccnc(CCc2nc3cc(-c4ccc5[nH]ccc5c4)cnc3[nH]2)c1 [Example 6, 6-(1H-Indol-5-yl)-2-[2-(4-methoxypyridin-2-yl)ethyl)-3H-imidazo-[4,5-b]pyridine]	49	241 to 242
COc1ccnc(CCc2nc3cc(-c4nc5ccccc5[nH]4)cnc3[nH]2)c1 [Example 7, 6-(1H-Benzoimidazol-2-yl)-2-[2-(4-methoxy-pyridin-2-yl)-ethyl]-3H-imidazo[4,5-b]pyridine]	30.9 to 245	–
COc1ccnc(CCc2nc3cc(-c4ccoc4)cnc3[nH]2)c1 [Example 2, 6-Furan-3-yl-[2-(4-methoxypyridin-2-yl)ethyl]-3H-imidazo[4,5-b]pyridine]	45.7	193 to 194
COc1ccnc(CCc2nc3cc(-c4ccc(C)s4)cnc3[nH]2)c1 [Example 12, 2-[2-(4-Methoxy-pyridin-2-yl)-ethyl]-6-(5-methyl-thiophen-2-yl)-3H-imidazo[4,5-b]pyridine]	30.9 to 245	–
COc1ccnc(CCc2nc3cc(-c4cc5ccccc5s4)cnc3[nH]2)c1 [Example 11, 6-Benzo[b]thiophen-2-yl-2-[2-(4-methoxy-pyridin-2-yl)-ethyl]-3H-imidazo[4,5-b]pyridine]	30.9 to 245	–
COc1ccnc(CCc2nc3cc(-c4csc5ccccc45)cnc3[nH]2)c1 [Example 9, 6-Benzo[b]thiophen-3-yl-2-[2-(4-methoxy-pyridin-2-yl)-ethyl]-3H-imidazo[4,5-b]pyridine]	30.9 to 245	–
COc1ccnc(CCc2nc3cc(-c4ccco4)cnc3[nH]2)c1 [Example 1, 6-Furan-2-yl-[2-(4-methoxypyridin-2-yl)ethyl]-3H-imidazo[4,5-b]pyridine]	49	147 to 148
